Source: ChEMBL document CHEMBL5390237, “Discovery of Selective Histone Deacetylase 1 and 2 Inhibitors: Screening of a Focused Library Constructed by Click Chemistry, Kinetic Binding Analysis, and Biological Evaluation” (J Med Chem, 2023)

target: Histone deacetylase 2 (Homo sapiens, UniProt Q92769); assay: Inhibition of full-length recombinant human C-terminal GST tagged HDAC2 expressed in Sf9 insect cells using aminoluciferin peptide substrate at 100 nM preincubated for 3 hrs followed by substrate addition and measured after 30 mins by HDAC-Glo I/II chemiluminescence assay; details: time 3.5 hrs
Sequence (Q92769 whole entry): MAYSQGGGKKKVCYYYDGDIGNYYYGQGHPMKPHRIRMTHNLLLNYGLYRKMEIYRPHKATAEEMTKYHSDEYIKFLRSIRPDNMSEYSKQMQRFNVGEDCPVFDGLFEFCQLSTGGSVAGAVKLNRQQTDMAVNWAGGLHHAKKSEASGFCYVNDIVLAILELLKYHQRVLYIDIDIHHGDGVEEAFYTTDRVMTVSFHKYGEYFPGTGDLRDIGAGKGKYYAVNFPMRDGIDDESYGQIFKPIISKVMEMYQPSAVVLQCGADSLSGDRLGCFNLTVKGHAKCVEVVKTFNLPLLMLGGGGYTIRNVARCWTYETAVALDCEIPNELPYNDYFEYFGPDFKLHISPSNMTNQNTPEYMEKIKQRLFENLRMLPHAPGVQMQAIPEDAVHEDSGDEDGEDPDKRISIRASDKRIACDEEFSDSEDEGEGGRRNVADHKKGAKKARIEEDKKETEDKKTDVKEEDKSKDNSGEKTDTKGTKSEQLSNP

inhibition, 5%:
COc1ccccc1CCn1cc(C(=O)Nc2cc(-c3ccc(F)cc3)ccc2N)nn1
Nc1ccc(-n2cc(CCC(=O)Nc3cc(-c4cccnc4)ccc3N)nn2)cc1
COc1ccc(-n2cc(-c3ccc(C(=O)Nc4cc(-c5cccs5)ccc4N)s3)nn2)cc1
Cc1cccc(CCn2cc(-c3cccc(C(=O)Nc4cc(-c5cccs5)ccc4N)c3)nn2)c1

inhibition, 0%:
Nc1ccc(-c2ccsc2)cc1NC(=O)CCc1cn(CCC2CCCCC2)nn1
Nc1ccc(-c2cccs2)cc1NC(=O)c1cccc(-c2cn(Cc3cccc(-c4ccccc4)c3)nn2)c1
Nc1ccc(-c2ccccc2)cc1NC(=O)c1cn(CCN2CCOCC2)nn1
Nc1ccc(-c2ccccc2)cc1NC(=O)c1cn(CCC23CC4CC(CC(C4)C2)C3)nn1
Nc1ccc(-c2ccccc2)cc1NC(=O)c1cn(CCC2CCCC2)nn1
Nc1ccc(-c2cccnc2)cc1NC(=O)CCc1cn(Cc2cccc(-c3ccccc3)c2)nn1
Nc1ccc(-c2cccs2)cc1NC(=O)c1cccc(-c2cn(Cc3ccc(-c4ccccc4)cc3)nn2)c1
Nc1ccc(-c2ccc(F)cc2)cc1NC(=O)CCc1cn(CCN2CCOCC2)nn1
Nc1ccc(-c2cccs2)cc1NC(=O)c1cn(-c2ccccc2-c2ccccc2)nn1
Nc1ccc(-c2ccccc2)cc1NC(=O)c1cn(CCc2cccc3ccccc23)nn1
Nc1ccc(-c2ccccc2)cc1NC(=O)c1cn(CCc2c[nH]c3ccccc23)nn1
Nc1ccc(-c2cccs2)cc1NC(=O)c1ccc(-c2cn(Cc3cc4ccccc4s3)nn2)s1
Nc1ccc(-c2ccsc2)cc1NC(=O)c1cn(CCc2ccsc2)nn1
Nc1ccc(-c2ccsc2)cc1NC(=O)CCc1cn(CCCCCC(=O)O)nn1
Nc1ccc(-c2cccs2)cc1NC(=O)c1cn(Cc2cccc(C(=O)O)c2)nn1
Nc1ccc(-c2cccs2)cc1NC(=O)c1ccc(-c2cn(-c3ccccc3-c3ccccc3)nn2)s1
Nc1ccc(-c2cccs2)cc1NC(=O)c1ccc(-c2cn(CCC3CCCCC3)nn2)s1
Nc1ccc(-c2ccsc2)cc1NC(=O)c1cn(CCC23CC4CC(CC(C4)C2)C3)nn1
Nc1ccc(-c2cccs2)cc1NC(=O)c1cn(CC(=O)Nc2ccc(F)cc2)nn1
Nc1ccc(-c2cccs2)cc1NC(=O)c1ccc(-c2cn(Cc3cccc(-c4ccccc4)c3)nn2)s1
Nc1ccc(-c2ccccc2)cc1NC(=O)CCc1cn(CCCCCCCC(=O)O)nn1
Nc1ccc(-c2cccs2)cc1NC(=O)c1ccc(-c2cn(Cc3ccc(-c4ccccc4)cc3)nn2)cc1
Nc1ccc(-c2ccccc2)cc1NC(=O)c1cn(C[S+]([O-])c2ccccc2)nn1 (centres undefined)
Nc1ccc(-c2cccnc2)cc1NC(=O)CCc1cn(CCc2ccccn2)nn1
Nc1ccc(-c2ccccc2)cc1NC(=O)CCc1cn(CCc2ccccn2)nn1
Nc1ccc(-c2ccccc2)cc1NC(=O)CCc1cn(Cc2cccc(C(=O)O)c2)nn1
Nc1ccc(-c2ccccc2)cc1NC(=O)c1cn(CCc2cccc(-c3ccccc3)c2)nn1
Nc1ccc(-c2ccsc2)cc1NC(=O)c1cn(CCc2ccc(Cl)cc2)nn1
Nc1ccc(-c2ccc(F)cc2)cc1NC(=O)c1cn(Cc2cccc(-c3ccccc3)c2)nn1
Nc1ccc(-c2ccc(F)cc2)cc1NC(=O)CCc1cn(CCCCCC(=O)O)nn1
Nc1ccc(-c2ccsc2)cc1NC(=O)c1cn(CCc2ccc(F)cc2)nn1
Nc1ccc(-c2ccccc2)cc1NC(=O)CCc1cn(CC23CC4CC(CC(C4)C2)C3)nn1
Nc1ccc(-c2ccsc2)cc1NC(=O)c1cn(-c2ccc(Br)cc2)nn1
Nc1ccc(-c2ccc(F)cc2)cc1NC(=O)CCc1cn(Cc2ccc(OC(F)(F)F)cc2)nn1
COc1ccccc1CCn1cc(C(=O)Nc2cc(-c3ccsc3)ccc2N)nn1
Nc1ccc(-c2ccccc2)cc1NC(=O)CCc1cn(CCCCCc2ccccc2)nn1
Nc1ccc(-c2ccccc2)cc1NC(=O)CCc1cn(Cc2ccc(OC(F)(F)F)cc2)nn1
Nc1ccc(-c2ccsc2)cc1NC(=O)c1cn(CC(=O)c2ccccc2)nn1

inhibition, 17%:
Nc1ccc(-c2cccs2)cc1NC(=O)c1cn(CCc2ccc([N+](=O)[O-])cc2)nn1
Nc1ccc(-c2cccs2)cc1NC(=O)c1cn(CS(=O)(=O)c2ccccc2)nn1

inhibition, 3%:
Nc1ccc(-c2ccsc2)cc1NC(=O)CCc1cn(-c2ccc(Br)cc2)nn1
Nc1ccc(-c2ccccc2)cc1NC(=O)c1cn(/C=C/c2ccccc2)nn1

inhibition, 24%:
Nc1ccc(-c2cccs2)cc1NC(=O)CCc1cn(/C=C/c2ccccc2)nn1
Nc1ccc(-c2ccccc2)cc1NC(=O)CCc1cn(CCc2ccccc2)nn1
Nc1ccc(-c2cccs2)cc1NC(=O)c1ccc(-c2cn(CCc3cccc(F)c3)nn2)s1
Nc1ccc(-n2cc(CCC(=O)Nc3cc(-c4ccsc4)ccc3N)nn2)cc1

inhibition, 8%:
Nc1ccc(-c2ccc(F)cc2)cc1NC(=O)c1cn(Cc2ccc3ccccc3c2)nn1

inhibition, 12%:
Nc1ccc(-c2cccs2)cc1NC(=O)c1cn(Cc2ccc3ccccc3n2)nn1

inhibition, 27%:
Nc1ccc(-c2cccs2)cc1NC(=O)CCc1cn(CCc2cccc([N+](=O)[O-])c2)nn1

inhibition, 20%:
Cc1cccc(CCn2cc(-c3ccc(C(=O)Nc4cc(-c5cccs5)ccc4N)s3)nn2)c1
Nc1ccc(-c2ccsc2)cc1NC(=O)CCc1cn(CCc2ccc3ccccc3n2)nn1
Nc1ccc(-c2cccs2)cc1NC(=O)c1cccc(-c2cn(CCN3CCc4ccccc4C3)nn2)c1

inhibition, 16%:
COc1ccc(CCn2cc(C(=O)Nc3cc(-c4ccc(F)cc4)ccc3N)nn2)cc1
Nc1ccc(-c2cccnc2)cc1NC(=O)CCc1cn(CCCCCc2ccccc2)nn1

inhibition, 7%:
Nc1ccc(-c2cccs2)cc1NC(=O)c1ccc(-c2cn(-c3ccc([N+](=O)[O-])cc3)nn2)s1

inhibition, 2%:
COc1ccc(-n2cc(C(=O)Nc3cc(-c4ccccc4)ccc3N)nn2)cc1
Nc1ccc(-c2ccc(F)cc2)cc1NC(=O)c1cn(CCC23CC4CC(CC(C4)C2)C3)nn1
Nc1ccc(-c2cccs2)cc1NC(=O)c1ccc(-c2cn(CCCc3ccccc3)nn2)cc1
Nc1ccc(-c2cccnc2)cc1NC(=O)CCc1cn(-c2ccc([N+](=O)[O-])cc2)nn1

inhibition, 31%:
Nc1ccc(-n2cc(C(=O)Nc3cc(-c4ccsc4)ccc3N)nn2)cc1

inhibition, 21%:
Nc1ccc(-c2ccc(F)cc2)cc1NC(=O)c1cn(CCCc2ccccc2)nn1

inhibition, 4%:
Nc1ccc(-c2cccnc2)cc1NC(=O)CCc1cn(CS(=O)(=O)c2ccccc2)nn1
Cc1ccccc1CCn1cc(CCC(=O)Nc2cc(-c3ccccc3)ccc2N)nn1
Nc1ccc(-c2ccc(F)cc2)cc1NC(=O)c1cn(-c2cccc3ccccc23)nn1

inhibition, 25%:
Nc1ccc(-n2cc(CCC(=O)Nc3cc(-c4cccs4)ccc3N)nn2)cc1
Nc1ccc(-c2ccsc2)cc1NC(=O)CCc1cn(Cc2nc3ccccc3[nH]2)nn1

inhibition, 23%:
Nc1ccc(-c2cccs2)cc1NC(=O)c1ccc(-c2cn(CCc3cccc([N+](=O)[O-])c3)nn2)s1

inhibition, 11%:
Nc1ccc(-c2cccnc2)cc1NC(=O)CCc1cn(Cc2nc3ccccc3[nH]2)nn1
Cc1ccc(-n2cc(C(=O)Nc3cc(-c4ccc(F)cc4)ccc3N)nn2)cc1C
Nc1ccc(-c2ccc(F)cc2)cc1NC(=O)CCc1cn(CCc2cccc(C(F)(F)F)c2)nn1
Cc1cccc(CCn2cc(C(=O)Nc3cc(-c4cccs4)ccc3N)nn2)c1

inhibition, 9%:
Nc1ccc(-c2ccccc2)cc1NC(=O)CCc1cn(CCCc2ccccc2)nn1
Nc1ccc(-c2cccnc2)cc1NC(=O)CCc1cn(-c2ccccc2-c2ccccc2)nn1

inhibition, 6%:
Nc1ccc(-c2cccs2)cc1NC(=O)c1cccc(-c2cn(CCc3c[nH]c4ccccc34)nn2)c1
Nc1ccc(-c2cccs2)cc1NC(=O)c1cccc(-c2cn(Cc3ccc4ccccc4c3)nn2)c1

inhibition, 40%:
COc1ccc(CCn2cc(-c3ccc(C(=O)Nc4cc(-c5cccs5)ccc4N)cc3)nn2)cc1

inhibition, 10%:
COc1ccc(Cn2cc(CCC(=O)Nc3cc(-c4cccs4)ccc3N)nn2)cc1

inhibition, 46%:
Nc1ccc(-c2cccs2)cc1NC(=O)c1ccc(-c2cn(CCc3ccc(C(=O)O)cc3)nn2)cc1

inhibition, 1%:
Nc1ccc(-c2ccccc2)cc1NC(=O)CCc1cn(CCc2cccc(F)c2)nn1

inhibition, 52%:
Nc1ccc(-c2cccs2)cc1NC(=O)c1ccc(-c2cn(Cc3ccc4ccccc4n3)nn2)cc1

inhibition, 26%:
Nc1ccc(-c2cccs2)cc1NC(=O)c1ccc(-c2cn(CCc3ccsc3)nn2)cc1

inhibition, 38%:
Nc1ccc(-c2cccs2)cc1NC(=O)c1ccc(-c2cn(CCc3c[nH]c4ccccc34)nn2)s1

inhibition, 44%:
Nc1ccc(-c2cccs2)cc1NC(=O)c1ccc(-c2cn(CS(=O)(=O)c3ccccc3)nn2)s1

inhibition, 14%:
Nc1ccc(-c2cccs2)cc1NC(=O)CCc1cn(CCN2CCc3ccccc3C2)nn1
Nc1ccc(-c2ccsc2)cc1NC(=O)CCc1cn(CC(=O)Nc2ccc(F)cc2)nn1
Nc1ccc(-c2cccs2)cc1NC(=O)c1cccc(-c2cn(CCc3ccc(C(=O)O)cc3)nn2)c1
Nc1ccc(-c2cccs2)cc1NC(=O)c1cn(CCc2c[nH]c3ccccc23)nn1

inhibition, 18%:
Nc1ccc(-c2ccsc2)cc1NC(=O)CCc1cn(CCN2CCc3ccccc3C2)nn1

inhibition, 22%:
Nc1ccc(-c2ccc(F)cc2)cc1NC(=O)c1cn(CCCCC(=O)O)nn1
Nc1ccc(-c2ccc(F)cc2)cc1NC(=O)c1cn(CCN2CCc3ccccc3C2)nn1
